Source: BindingDB's records for patent US9796704 (SYMPHONY EVOLUTION, INC., 2017)

Experiments:
Assay in all cases: AlphaScreen Assay
[1] = biological target: Vascular endothelial growth factor receptor 2 (Homo sapiens, UniProt P35968)
Ephrin type-B receptor 4 = biological target: T1, Ephrin type-B receptor 4 (Homo sapiens, UniProt P54760)
T1 sequence (P54760 whole entry): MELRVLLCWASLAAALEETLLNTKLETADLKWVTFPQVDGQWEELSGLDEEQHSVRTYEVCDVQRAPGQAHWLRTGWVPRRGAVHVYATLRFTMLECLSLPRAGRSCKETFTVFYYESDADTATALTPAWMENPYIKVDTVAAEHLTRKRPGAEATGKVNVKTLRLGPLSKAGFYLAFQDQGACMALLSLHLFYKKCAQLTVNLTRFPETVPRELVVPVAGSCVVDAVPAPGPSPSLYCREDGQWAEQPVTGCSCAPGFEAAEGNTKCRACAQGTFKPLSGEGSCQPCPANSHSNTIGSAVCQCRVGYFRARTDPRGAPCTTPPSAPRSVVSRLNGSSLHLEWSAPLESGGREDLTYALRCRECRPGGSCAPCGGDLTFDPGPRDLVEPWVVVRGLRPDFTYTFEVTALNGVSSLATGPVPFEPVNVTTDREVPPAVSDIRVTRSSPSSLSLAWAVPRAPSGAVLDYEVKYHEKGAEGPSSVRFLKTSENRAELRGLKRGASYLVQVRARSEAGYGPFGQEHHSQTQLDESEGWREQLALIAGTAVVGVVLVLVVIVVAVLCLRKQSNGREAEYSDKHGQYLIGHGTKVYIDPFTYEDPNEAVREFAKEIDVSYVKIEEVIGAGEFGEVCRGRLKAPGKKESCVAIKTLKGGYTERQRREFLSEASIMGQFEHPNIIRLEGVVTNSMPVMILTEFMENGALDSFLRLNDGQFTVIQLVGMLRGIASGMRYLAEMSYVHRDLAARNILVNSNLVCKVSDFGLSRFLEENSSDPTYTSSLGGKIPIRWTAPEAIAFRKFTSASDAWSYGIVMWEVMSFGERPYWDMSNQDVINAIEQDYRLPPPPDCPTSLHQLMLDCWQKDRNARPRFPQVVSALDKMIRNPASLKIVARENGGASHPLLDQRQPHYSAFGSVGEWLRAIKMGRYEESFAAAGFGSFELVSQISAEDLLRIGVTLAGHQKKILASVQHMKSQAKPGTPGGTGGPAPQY

Ephrin type-A receptor 2 = Ephrin type-A receptor 2 (Homo sapiens, UniProt P29317)
Chain of Ephrin type-A receptor 2 (P29317 whole entry): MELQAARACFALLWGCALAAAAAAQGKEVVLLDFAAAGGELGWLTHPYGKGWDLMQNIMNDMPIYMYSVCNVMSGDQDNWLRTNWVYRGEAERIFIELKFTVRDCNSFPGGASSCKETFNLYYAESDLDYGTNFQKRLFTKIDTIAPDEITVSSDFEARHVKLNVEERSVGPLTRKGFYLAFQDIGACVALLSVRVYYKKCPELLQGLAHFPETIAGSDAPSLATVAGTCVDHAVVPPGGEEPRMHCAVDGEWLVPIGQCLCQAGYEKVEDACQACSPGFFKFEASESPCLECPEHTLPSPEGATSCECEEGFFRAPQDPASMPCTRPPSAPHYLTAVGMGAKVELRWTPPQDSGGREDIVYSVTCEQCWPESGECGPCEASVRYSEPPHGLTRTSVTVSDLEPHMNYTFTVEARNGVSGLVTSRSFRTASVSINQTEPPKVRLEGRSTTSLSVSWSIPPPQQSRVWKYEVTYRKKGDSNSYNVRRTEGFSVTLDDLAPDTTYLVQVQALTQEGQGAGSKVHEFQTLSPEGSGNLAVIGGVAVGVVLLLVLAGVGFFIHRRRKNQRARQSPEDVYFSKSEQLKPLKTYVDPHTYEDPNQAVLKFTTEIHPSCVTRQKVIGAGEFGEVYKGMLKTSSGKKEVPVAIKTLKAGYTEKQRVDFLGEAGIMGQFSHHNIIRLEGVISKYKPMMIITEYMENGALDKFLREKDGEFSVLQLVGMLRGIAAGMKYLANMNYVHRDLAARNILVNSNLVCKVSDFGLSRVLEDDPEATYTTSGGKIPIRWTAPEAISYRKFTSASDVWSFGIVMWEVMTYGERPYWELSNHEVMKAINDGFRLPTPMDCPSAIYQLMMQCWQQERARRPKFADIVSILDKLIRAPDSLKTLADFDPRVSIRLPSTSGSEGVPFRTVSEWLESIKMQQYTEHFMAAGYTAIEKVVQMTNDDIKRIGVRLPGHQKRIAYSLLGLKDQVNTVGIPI

[2] = biological target: Receptor tyrosine-protein kinase erbB-2 (Homo sapiens, UniProt P04626)
Chain of Receptor tyrosine-protein kinase erbB-2 (P04626 whole entry): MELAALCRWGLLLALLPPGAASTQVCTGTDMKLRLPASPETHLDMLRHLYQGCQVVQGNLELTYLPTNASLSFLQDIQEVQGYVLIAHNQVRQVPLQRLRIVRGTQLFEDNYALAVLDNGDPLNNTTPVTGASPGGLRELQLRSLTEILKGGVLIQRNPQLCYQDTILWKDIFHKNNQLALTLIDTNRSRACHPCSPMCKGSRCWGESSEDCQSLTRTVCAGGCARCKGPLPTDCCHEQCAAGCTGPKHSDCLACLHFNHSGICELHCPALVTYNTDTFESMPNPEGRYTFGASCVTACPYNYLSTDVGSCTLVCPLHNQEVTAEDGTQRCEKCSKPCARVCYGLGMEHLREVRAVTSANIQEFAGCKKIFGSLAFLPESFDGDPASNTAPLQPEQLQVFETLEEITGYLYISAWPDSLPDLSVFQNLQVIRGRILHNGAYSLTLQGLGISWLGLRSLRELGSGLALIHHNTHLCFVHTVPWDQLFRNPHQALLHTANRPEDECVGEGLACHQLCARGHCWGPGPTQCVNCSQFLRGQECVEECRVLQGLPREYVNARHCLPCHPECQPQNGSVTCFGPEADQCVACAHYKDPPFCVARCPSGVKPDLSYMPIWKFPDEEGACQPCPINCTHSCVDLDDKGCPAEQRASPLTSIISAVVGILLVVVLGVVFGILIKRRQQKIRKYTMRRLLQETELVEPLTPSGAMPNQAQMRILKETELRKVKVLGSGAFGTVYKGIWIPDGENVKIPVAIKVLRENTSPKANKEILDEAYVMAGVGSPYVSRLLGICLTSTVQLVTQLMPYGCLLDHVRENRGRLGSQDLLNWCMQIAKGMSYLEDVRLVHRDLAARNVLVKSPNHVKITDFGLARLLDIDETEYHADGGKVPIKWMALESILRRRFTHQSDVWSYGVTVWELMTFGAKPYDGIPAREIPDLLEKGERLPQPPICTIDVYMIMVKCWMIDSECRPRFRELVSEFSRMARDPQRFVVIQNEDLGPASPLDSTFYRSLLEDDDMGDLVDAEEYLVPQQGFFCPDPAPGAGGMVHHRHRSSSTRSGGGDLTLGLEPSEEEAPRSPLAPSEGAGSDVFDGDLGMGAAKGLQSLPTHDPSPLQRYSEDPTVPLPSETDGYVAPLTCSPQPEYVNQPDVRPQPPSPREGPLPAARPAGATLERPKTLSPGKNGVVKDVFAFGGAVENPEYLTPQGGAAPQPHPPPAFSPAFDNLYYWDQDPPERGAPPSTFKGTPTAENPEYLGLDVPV

Chain of Vascular endothelial growth factor receptor 2 (P35968 whole entry): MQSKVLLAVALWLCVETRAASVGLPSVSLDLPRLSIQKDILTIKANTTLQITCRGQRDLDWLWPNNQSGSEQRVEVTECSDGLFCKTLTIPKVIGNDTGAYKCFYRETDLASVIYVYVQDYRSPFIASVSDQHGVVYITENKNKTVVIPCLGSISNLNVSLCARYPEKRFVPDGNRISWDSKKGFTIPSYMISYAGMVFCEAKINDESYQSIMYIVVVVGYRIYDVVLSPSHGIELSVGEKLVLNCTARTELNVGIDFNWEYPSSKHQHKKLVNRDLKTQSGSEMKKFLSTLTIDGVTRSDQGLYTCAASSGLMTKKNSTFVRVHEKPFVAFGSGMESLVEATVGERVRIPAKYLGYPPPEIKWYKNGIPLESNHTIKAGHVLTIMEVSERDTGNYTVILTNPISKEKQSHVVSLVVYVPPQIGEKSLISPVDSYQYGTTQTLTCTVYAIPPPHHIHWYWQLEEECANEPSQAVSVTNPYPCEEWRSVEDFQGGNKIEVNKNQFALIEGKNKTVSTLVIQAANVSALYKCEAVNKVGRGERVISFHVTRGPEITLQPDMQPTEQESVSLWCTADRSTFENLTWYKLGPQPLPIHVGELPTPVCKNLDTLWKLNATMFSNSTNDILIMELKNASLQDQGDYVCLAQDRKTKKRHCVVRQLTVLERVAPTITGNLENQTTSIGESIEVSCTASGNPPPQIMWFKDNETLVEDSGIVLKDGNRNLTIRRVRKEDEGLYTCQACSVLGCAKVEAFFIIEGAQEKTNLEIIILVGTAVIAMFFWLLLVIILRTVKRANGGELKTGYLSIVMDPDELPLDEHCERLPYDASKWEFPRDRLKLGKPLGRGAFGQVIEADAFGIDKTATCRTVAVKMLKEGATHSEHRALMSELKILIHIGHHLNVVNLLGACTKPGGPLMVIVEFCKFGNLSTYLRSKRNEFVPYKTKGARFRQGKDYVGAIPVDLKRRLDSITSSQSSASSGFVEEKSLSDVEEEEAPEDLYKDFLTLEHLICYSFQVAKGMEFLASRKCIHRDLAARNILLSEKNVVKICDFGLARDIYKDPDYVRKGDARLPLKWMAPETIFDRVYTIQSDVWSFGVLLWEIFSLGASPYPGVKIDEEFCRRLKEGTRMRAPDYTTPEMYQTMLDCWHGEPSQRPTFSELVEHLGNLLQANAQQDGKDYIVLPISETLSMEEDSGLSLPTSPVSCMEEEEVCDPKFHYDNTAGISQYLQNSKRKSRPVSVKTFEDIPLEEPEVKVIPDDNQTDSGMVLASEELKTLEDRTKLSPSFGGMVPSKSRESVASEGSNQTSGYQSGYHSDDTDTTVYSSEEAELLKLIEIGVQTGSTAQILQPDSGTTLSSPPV

IC50 [1] | IC50 (Ephrin type-B receptor 4) | IC50 (Ephrin type-A receptor 2) | IC50 [2] | SMILES
– | < 50 nM | – | – | COc1cc2c(Nc3ccc(Br)c(Cl)c3F)ncnc2cc1OC[C@H]1C[C@H]2CNC[C@H]2C1 [US9796704, Entry 4]
in the range around 10500 nM | < 50 nM | – | – | CCOC(=O)N1C[C@H]2CC(COc3cc4ncnc(Nc5ccc(Br)c(Cl)c5F)c4cc3OC)C[C@H]2C1 (stereo partly drawn) [US9796704, Entry 5]
< 50 nM | < 50 nM | – | – | COc1cc2c(Nc3ccc(F)c(Cl)c3F)ncnc2cc1OC[C@H]1CN2CCOCC2CO1 (stereo partly drawn) [US9796704, Entry 21]
– | in the range around 525 nM | < 50 nM | – | COc1cc2c(Nc3cc(Cl)c(Br)cc3F)ncnc2cc1OC[C@@H]1CN2CCOCC2CO1 (stereo partly drawn) [US9796704, Entry 28]
in the range around 525 nM | in the range around 525 nM | < 50 nM | – | COc1cc2c(Nc3ccc(Cl)c(Cl)c3F)ncnc2cc1OC[C@H]1CN2CCOCC2CO1 (stereo partly drawn) [US9796704, Entry 29]
in the range around 525 nM | – | in the range around 525 nM | in the range around 10500 nM | COc1cc2c(Nc3cc(Cl)c(Cl)cc3F)ncnc2cc1OC[C@@H]1CN2CCC[C@H]2CO1 [US9796704, Entry 40]
in the range around 10500 nM | in the range around 10500 nM | in the range around 10500 nM | – | COc1cc2c(Nc3ccc(F)c(Cl)c3F)ncnc2cc1OCC1CO[C@@H]2[C@@H](OC)CO[C@H]12 (stereo partly drawn) [US9796704, Entry 45]
in the range around 10500 nM | in the range around 10500 nM | in the range around 10500 nM | – | COc1cc2c(Nc3ccc(Cl)c(Cl)c3)ncnc2cc1OCC1CO[C@@H]2C(OC)CO[C@H]12 (stereo partly drawn) [US9796704, Entry 47]
in the range around 525 nM | in the range around 525 nM | in the range around 525 nM | – | C=C1CO[C@@H]2[C@@H](Oc3cc4ncnc(Nc5ccc(Br)c(Cl)c5)c4cc3OC)CO[C@H]12 [US9796704, Entry 81]
in the range around 525 nM | in the range around 525 nM | in the range around 525 nM | – | COc1cc2c(Nc3ccc(Br)c(Cl)c3)ncnc2cc1O[C@H]1CO[C@@H]2[C@@H](OC)[C@@H](OC)O[C@@H]21 [US9796704, Entry 82]
in the range around 525 nM | in the range around 525 nM | in the range around 525 nM | – | COc1cc2c(Nc3ccc(Cl)c(Cl)c3F)ncnc2cc1OCC1CCC2CCCCN2C1 (stereo not drawn) [US9796704, Entry 83]
in the range around 525 nM | in the range around 525 nM | in the range around 525 nM | – | COc1cc2c(Nc3ccc(F)cc3Cl)ncnc2cc1O[C@@H]1CO[C@@H]2[C@H]1OC[C@H]2F [US9796704, Entry 85]
– | in the range around 525 nM | – | – | COc1cc2c(Nc3ccc(F)c(C(F)(F)F)c3)ncnc2cc1O[C@@H]1CO[C@@H]2[C@H]1OC[C@H]2F [US9796704, Entry 89]
– | – | in the range around 525 nM | in the range around 525 nM | COc1cc2c(Nc3ccc(Cl)c(Cl)c3F)ncnc2cc1O[C@@H]1CO[C@@H]2[C@H]1OC[C@H]2F [US9796704, Entry 97]
in the range around 525 nM | – | in the range around 525 nM | in the range around 525 nM | COc1cc2c(Nc3ccc(Cl)cc3Cl)ncnc2cc1O[C@@H]1CO[C@@H]2[C@H]1OC[C@H]2F [US9796704, Entry 117]
– | in the range around 525 nM | in the range around 525 nM | – | COc1cc2c(Nc3cc(C(F)(F)F)ccc3Cl)ncnc2cc1O[C@@H]1CO[C@@H]2[C@H]1OC[C@H]2F [US9796704, Entry 122]
– | in the range around 525 nM | in the range around 525 nM | – | COc1cc2c(Nc3ccc(Cl)c(Cl)c3)ncnc2cc1OCc1noc(-c2cccc(C(F)(F)F)c2)n1 [US9796704, Entry 166]
in the range around 525 nM | – | in the range around 525 nM | in the range around 525 nM | COc1cc2c(Nc3ccc(Cl)c(Cl)c3)ncnc2cc1OCc1ccncc1 [US9796704, Entry 172]
in the range around 525 nM | in the range around 525 nM | – | – | COc1cc2c(Nc3ccc(Cl)c(Cl)c3)ncnc2cc1OCc1cccnc1 [US9796704, Entry 179]
in the range around 10500 nM | – | in the range around 10500 nM | in the range around 10500 nM | COc1cc2c(Nc3ccc(Cl)c(Cl)c3)ncnc2cc1OCC1CN(CC2CC2)CCCO1 (stereo not drawn) [US9796704, Entry 259]
in the range around 525 nM | – | in the range around 10500 nM | in the range around 10500 nM | COc1cc2c(Nc3ccc(Cl)c(Cl)c3)ncnc2cc1OCC1CN(C2CCCC2)CCO1 (stereo not drawn) [US9796704, Entry 269]

The next lines start with the compound.

SMILES | IC50 [1] | IC50 (Ephrin type-B receptor 4) | IC50 (Ephrin type-A receptor 2) | IC50 [2]
COc1cc2c(Nc3ccc(Br)c(Cl)c3F)ncnc2cc1OC[C@@H]1C[C@@H]2CN(C(C)C)C[C@@H]2C1 [US9796704, Entry 2] | […] | < 50 nM | – | –
COc1cc2c(Nc3ccc(Br)c(Cl)c3F)ncnc2cc1OC[C@@H]1C[C@@H]2CN(C(C)=O)C[C@@H]2C1 [US9796704, Entry 3] | – | < 50 nM | – | –
COc1cc2c(Nc3cc(Cl)c(Cl)cc3F)ncnc2cc1OC[C@H]1CN2CCOCC2CO1 (stereo partly drawn) [US9796704, Entry 19] | < 50 nM | < 50 nM | – | –
COc1cc2c(Nc3ccc(F)c(Cl)c3F)ncnc2cc1OC[C@@H]1CN2CCOCC2CO1 (stereo partly drawn) [US9796704, Entry 24] | – | in the range around 10500 nM | – | –
COc1cc2c(Nc3ccc(Br)c(Cl)c3F)ncnc2cc1OC[C@H]1CN2CCOCC2CO1 (stereo partly drawn) [US9796704, Entry 30] | in the range around 525 nM | < 50 nM | < 50 nM | –
COc1cc2c(Nc3ccc(Cl)c(Cl)c3)ncnc2cc1OC1C[C@@H]2CN(C)C[C@@H]2C1 (stereo partly drawn) [US9796704, Entry 59] | – | < 50 nM | – | –
COc1cc2c(Nc3ccc(F)cc3Br)ncnc2cc1O[C@@H]1CO[C@@H]2[C@H]1OC[C@H]2F [US9796704, Entry 86] | in the range around 525 nM | in the range around 525 nM | in the range around 525 nM | –
COc1cc2c(Nc3c(F)cccc3F)ncnc2cc1O[C@@H]1CO[C@@H]2[C@H]1OC[C@H]2F [US9796704, Entry 87] | – | in the range around 525 nM | in the range around 525 nM | –
COc1cc2c(Nc3cccc(Cl)c3F)ncnc2cc1O[C@@H]1CO[C@@H]2[C@H]1OC[C@H]2F [US9796704, Entry 88] | in the range around 10500 nM | in the range around 525 nM | in the range around 525 nM | –
COc1cc2c(Nc3ccc(F)cc3F)ncnc2cc1O[C@@H]1CO[C@@H]2[C@H]1OC[C@H]2F [US9796704, Entry 90] | – | in the range around 525 nM | in the range around 525 nM | –
COc1cc2c(Nc3ccc(Cl)cc3F)ncnc2cc1O[C@@H]1CO[C@@H]2[C@H]1OC[C@H]2F [US9796704, Entry 109] | – | in the range around 525 nM | in the range around 525 nM | –
COc1cc2c(Nc3c(F)cc(F)cc3Br)ncnc2cc1O[C@@H]1CO[C@@H]2[C@H]1OC[C@H]2F [US9796704, Entry 120] | – | in the range around 525 nM | in the range around 525 nM | –
COc1ccc(OC)c(Nc2ncnc3cc(O[C@@H]4CO[C@@H]5[C@H]4OC[C@H]5F)c(OC)cc23)c1 [US9796704, Entry 134] | – | in the range around 525 nM | in the range around 525 nM | –
COc1cc2c(Nc3ccc(Cl)c(Cl)c3)ncnc2cc1OCC1CN(C(=O)OC(C)(C)C)CCO1 (stereo not drawn) [US9796704, Entry 148] | – | – | in the range around 525 nM | in the range around 525 nM
COc1cc2c(Nc3ccc(Cl)c(Cl)c3)ncnc2cc1OCc1noc(C(C)(C)C)n1 [US9796704, Entry 157] | – | in the range around 525 nM | in the range around 525 nM | –
COc1cc2c(Nc3ccc(Cl)c(Cl)c3)ncnc2cc1OCc1c(F)cccc1F [US9796704, Entry 233] | in the range around 525 nM | – | in the range around 525 nM | in the range around 10500 nM
CCCN1CCCOC(COc2cc3ncnc(Nc4ccc(Cl)c(Cl)c4)c3cc2OC)C1 (stereo not drawn) [US9796704, Entry 258] | in the range around 10500 nM | – | in the range around 10500 nM | in the range around 10500 nM
